Counter-ions that a name gives are not always drawn. Like-named read-outs stand apart in the source and are kept apart here.

Consider 3 compounds from article doi:10.1101/2024.12.04.24318244v2 (medrxiv, 2024).

What all share (assay): radioligand competition binding
In general terms: Displacement assays read how much labelled ligand stays bound in the presence of the test substance.

The target in assay [1] is 5-HT2B (Homo sapiens, UniProt P41595).
Assay [2] addresses T1, 5-HT1A (Homo sapiens, UniProt P08908).
T1 sequence (P08908 1-422): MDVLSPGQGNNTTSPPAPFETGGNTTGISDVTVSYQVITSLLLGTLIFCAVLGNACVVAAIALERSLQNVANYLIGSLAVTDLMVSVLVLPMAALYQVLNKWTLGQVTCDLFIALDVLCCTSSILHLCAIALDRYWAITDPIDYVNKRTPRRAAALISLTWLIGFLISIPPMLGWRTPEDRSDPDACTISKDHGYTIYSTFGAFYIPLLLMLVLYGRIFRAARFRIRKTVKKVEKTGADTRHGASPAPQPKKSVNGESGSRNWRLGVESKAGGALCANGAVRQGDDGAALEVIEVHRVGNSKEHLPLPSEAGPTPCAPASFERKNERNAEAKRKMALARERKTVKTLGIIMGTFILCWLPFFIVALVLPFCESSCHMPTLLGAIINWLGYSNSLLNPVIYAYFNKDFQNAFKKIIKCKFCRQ

For assay [3], the target named is S2R.

Chain of 5-HT2B (P41595 whole entry): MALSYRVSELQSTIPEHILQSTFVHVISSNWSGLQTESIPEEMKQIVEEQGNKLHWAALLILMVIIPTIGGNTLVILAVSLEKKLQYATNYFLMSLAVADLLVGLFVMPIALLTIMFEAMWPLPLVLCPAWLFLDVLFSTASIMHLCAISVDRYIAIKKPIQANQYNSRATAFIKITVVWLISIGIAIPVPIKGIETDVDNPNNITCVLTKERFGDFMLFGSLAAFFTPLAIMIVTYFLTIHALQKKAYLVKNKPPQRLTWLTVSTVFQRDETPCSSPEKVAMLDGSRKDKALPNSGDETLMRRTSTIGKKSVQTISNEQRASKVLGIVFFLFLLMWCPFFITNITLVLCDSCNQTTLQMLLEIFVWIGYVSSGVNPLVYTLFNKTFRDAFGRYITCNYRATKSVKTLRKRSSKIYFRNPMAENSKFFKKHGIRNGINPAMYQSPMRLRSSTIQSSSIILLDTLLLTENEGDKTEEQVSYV

On to `CC(C)n1c(=O)c(C(=O)NCCCN2CCCCC2)c(O)c2ccsc21` [PRX-3140, 6,7-Dihydro-4-hydroxy-7-isopropyl-6-oxo-N-(3-(piperidin-1-yl)propyl)thieno[2,3-b]pyridine-5-carboxamide potassium salt], for which the Ki in assay [1] was greater than 5000 nM; in assay [2] it was greater than 5000 nM; in assay [3] (text b35 prints a range that differs from the table) it was 36.1 nM.

Take `CC(=O)Nc1cccc(N2CCN(CCCCNS(=O)(=O)CC3CCCCC3)CC2)c1` [NP-18-2, N-{3-[4-(4-cyclohexylmethanesulfonylaminobutyl)-piperazin-1-yl]phenyl} acetamide hydrochloride]: the Ki was greater than 5000 nM in assay [1], 5 to 11 nM in assay [2] (text b38 prints a wider range than the table) and greater than 2000 nM in assay [3].

As for `N#Cc1cc(CN2CCC(Nc3ncnc4sc(Cl)cc34)CC2)ccc1F` [NP-18-3, 5-((4-(6-chlorothieno[2,3-d]pyrimidin-4-ylamino)piperidine-1-yl)methyl)-2-fluorobenzonitrile monofumarate], the Ki worked out at 3.4 nM in assay [1] and 42 nM in assay [3].

In general, Ki refers to a measure of affinity in units of concentration, obtained from inhibition or displacement. Read a high Ki as lower affinity.
